Reference: US9629364B2, “Synergistic weed control from applications of aminopyralid and clopyralid” (Dow AgroSciences LLC, priority 2012, dated 2017)
Structures can show the parent of a compound that is named as a salt.

Tested on: black nightshade (Solanam nigram)
Assay: Field trial, post-emergence foliar application, weed control rating 0-100%
Assay type: in vivo
Details: SOLNI, 56 days after first application, with 0.5 L/ha ACTIROB
Excerpt: The (a) aminopyralid or an agriculturally acceptable salt or ester thereof is mixed with or applied in combination with (b) clopyralid or an agriculturally acceptable salt or ester thereof in an amount sufficient to induce a synergistic herbicidal effect. […] As described in the Herbicide Handbook of the Weed Science Society of America, Ninth Edition, 2007, p. 429, “‘synergism’ [is] an interaction of two or more factors such that the effect when combined is greater than the predicted effect based on the response to each factor applied separately.” Synergistic in the herbicide context can mean that the use of (a) and (b) as defined above results in an increased weed control effect compared to the weed control effects that are possible with the use of (a) or (b) alone. In some embodiments, the damage or injury to the undesired vegetation caused by the compositions and methods disclosed herein is evaluated using a scale from 0% to 100%, when compared with the untreated control vegetation, wherein 0% indicates no damage to the undesired vegetation and 100% indicates complete destruction of the undesired vegetation. […] 22 (1967) […]
Colby's equation was used to determine the herbicidal effects expected from the mixtures, as described above. The results were measured at 56 days after the first application of the compositions. […]

SMILES | Mean % weed control (1 g ae/ha applied alone) [%] | Mean % weed control (90 g ae/ha applied alone) [%]
Nc1cc(Cl)nc(C(=O)O)c1Cl [Aminopyralid Potassium Salt, 4-amino-3,6-dichloro-2-pyridinecarboxylic acid] | 0 | 
O=C(O)c1nc(Cl)ccc1Cl [Clopyralid-olamine, 3,6-dichloro-2-pyridinecarboxylic acid] |  | 37.5
